Laboratory results from patent US9469615B2, “Quinoxalines and AZA-quinoxalines as CRTH2 receptor modulators” (Merck Sharp & Dohme Corp., priority 2010, dated 2016).

The compounds below were run against T1, hCRTH2 (Homo sapiens, UniProt Q9Y5Y4) (assay: Radioligand binding assay ([3H]PGD2 competition, HEK-hCRTH2 membranes)). Conditions: [3H]PGD2 binding, rated A-E (Table A).
T1 construct: expressed in transfected cells; host or cells: HEK (human embryonic kidney) cells expressing hCRTH2; membrane preparation
T1 sequence (Q9Y5Y4 1-395): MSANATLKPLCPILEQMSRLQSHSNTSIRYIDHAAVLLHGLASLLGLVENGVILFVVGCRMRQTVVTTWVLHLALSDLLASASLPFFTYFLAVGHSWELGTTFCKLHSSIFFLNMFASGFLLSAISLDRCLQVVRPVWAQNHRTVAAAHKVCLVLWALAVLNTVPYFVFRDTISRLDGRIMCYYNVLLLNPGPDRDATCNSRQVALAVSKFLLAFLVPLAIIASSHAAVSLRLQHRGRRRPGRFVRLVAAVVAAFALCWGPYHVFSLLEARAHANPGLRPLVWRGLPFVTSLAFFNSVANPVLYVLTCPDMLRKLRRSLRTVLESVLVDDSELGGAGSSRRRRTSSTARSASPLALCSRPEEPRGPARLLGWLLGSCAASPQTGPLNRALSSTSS
How it was run: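 Displacement of 3.0 nM [3H]PGD2 from human CRTH2 expressed in HEK membranes was measured at room temperature over 60 min. Unlabelled PGD2 at 10 μM gave non-specific binding.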

Row | SMILES | Ki
1 | CC(CCc1nc2cc(C(=O)N[C@H](C)c3ccc(Cl)cc3)ccc2nc1-c1ccc(Cl)cc1)CC(=O)O (stereo partly drawn) [17E, 3-(4-chlorophenyl)-7-[[[1(R)-(4-chlorophenyl)ethyl]amino]carbonyl]-beta-methyl-2-quinoxalinepentanoic acid] | 2.1 to 20 nM
2 | CC(CCc1nc2cc(C(=O)N3CC(c4ccccc4)C3)ccc2nc1-c1ccc(Cl)cc1)CC(=O)O (stereo not drawn) [17F, 3-(4-chlorophenyl)-beta-methyl-7-[(3-phenyl-1-azetidinyl)carbonyl]-2-quinoxalinepentanoic acid] | 0.1 to 2 nM
3 | CC(CCc1nc2cc(C(=O)N[C@H](c3ccc(F)cc3)C(F)(F)F)ccc2nc1-c1ccc(Cl)cc1)CC(=O)O (stereo partly drawn) [17G] | 2.1 to 20 nM
4 | COc1ccc(CNC(=O)c2ccc3nc(-c4ccc(Cl)cc4)c(CCC(C)CC(=O)O)nc3c2)cc1 (stereo not drawn) [17H] | 2.1 to 20 nM
5 | CC(CCc1nc2cc(C(=O)N3CCC[C@H](c4ccccc4)C3)ccc2nc1-c1ccc(Cl)cc1)CC(=O)O (stereo partly drawn) [17J, 3-(4-chlorophenyl)-beta-methyl-7-[(3(R)-phenyl-1-piperidinyl)carbonyl]-2-quinoxalinepentanoic acid] | 2.1 to 20 nM
6 | CC(CCc1nc2cc(C(=O)N3CC[C@@H](c4ccccc4)C3)ccc2nc1-c1ccc(Cl)cc1)CC(=O)O (stereo partly drawn) [17K, 3-(4-chlorophenyl)-beta-methyl-7-[(3(S)-phenyl-1-pyrrolidinyl)carbonyl]-2-quinoxalinepentanoic acid] | 0.1 to 2 nM
7 | CC(CCc1nc2cc(C(=O)N3CC[C@H](c4ccccc4)C3)ccc2nc1-c1ccc(Cl)cc1)CC(=O)O (stereo partly drawn) [17L, 3-(4-chlorophenyl)-beta-methyl-7-[(3(R)-phenyl-1-pyrrolidinyl)carbonyl]-2-quinoxalinepentanoic acid] | 2.1 to 20 nM
8 | CC(CCc1nc2cc(C(=O)N[C@@H](c3ccccc3)C(F)(F)F)ccc2nc1-c1ccc(Cl)cc1)CC(=O)O (stereo partly drawn) [17M, 3-(4-chlorophenyl)-beta-methyl-7-[[[2,2,2-trifluoro-(1S)-phenylethyl]amino]carbonyl]-2-quinoxaline pentanoic acid] | 2.1 to 20 nM
9 | CC(CCc1nc2cc(C(=O)N[C@H](c3ccccc3)C(F)(F)F)ccc2nc1-c1ccc(Cl)cc1)CC(=O)O (stereo partly drawn) [17N, 3-(4-chlorophenyl)-beta-methyl-7-[[(2,2,2-trifluoro-1(R)-phenylethyl)amino]carbonyl]-2-quinoxalinepentanoic acid] | 2.1 to 20 nM
10 | COc1ccc([C@H](C)NC(=O)c2ccc3nc(-c4ccc(Cl)cc4)c(CCC(C)CC(=O)O)nc3c2)cc1 (stereo partly drawn) [17P, 3-(4-chlorophenyl)-7-[[[1(S)-(4-methoxyphenyl)ethyl]amino]carbonyl]-beta-methyl-2-quinoxaline pentanoic acid] | 2.1 to 20 nM

Continued, values first:

Row | Ki | SMILES
11 | 2.1 to 20 nM | CC(CCc1nc2cc(C(=O)NCc3cccc(Cl)c3)ccc2nc1-c1ccc(C(F)(F)F)cc1)CC(=O)O (stereo not drawn) [17Q, 7-[[[(3-chlorophenyl)methyl]amino]carbonyl]-beta-methyl-3-[4-(trifluoromethyl)phenyl]-2-quinoxalinepentanoic acid]
12 | 0.1 to 2 nM | CC(CCc1nc2cc(C(=O)N3CCC(c4ccccc4)CC3)ccc2nc1-c1ccc(C(F)(F)F)cc1)CC(=O)O (stereo not drawn) [17R]
13 | 2.1 to 20 nM | CC(CCc1nc2cc(C(=O)N[C@@H](c3ccccc3)C(F)(F)F)ccc2nc1-c1ccc(C(F)(F)F)cc1)CC(=O)O (stereo partly drawn) [17S]
14 | 0.1 to 2 nM | CC(CCc1nc2cc(C(=O)NC3Cc4ccccc4C3)ccc2nc1-c1ccc(C(F)(F)F)cc1)CC(=O)O (stereo not drawn) [17T, 7-[[(2,3-dihydro-1H-inden-2-yl)amino]carbonyl]-beta-methyl-3-[4-(trifluoromethyl)phenyl]-2-quinoxalinepentanoic acid]
15 | 2.1 to 20 nM | CC(CCc1nc2cc(C(=O)N3CC[C@H](c4ccccc4)C3)ccc2nc1-c1ccc(C(F)(F)F)cc1)CC(=O)O (stereo partly drawn) [17U, beta-methyl-7-[(3(R)-phenyl-1-pyrrolidinyl)carbonyl]-3-[4-(trifluoromethyl)phenyl]-2-quinoxalinepentanoic acid]
